Data on 20 compounds can be found in ChEMBL document CHEMBL4477252, “Optimization of microtubule affinity regulating kinase (MARK) inhibitors with improved physical properties” (Bioorg Med Chem Lett, 2016).

Data set [1] addresses MAP/microtubule affinity-regulating kinase 3 (Homo sapiens, UniProt P27448). The experiment in a line: Inhibition of full-length recombinant human GST-tagged MARK3 expressed in baculovirus expression system using biotinylated-Cdc25C peptide substrate measured after 2 hrs by HTRF assay. A general note: In TR-FRET formats the signal depends on donor and acceptor labels being close together.

The target in data set [2] is MDR1 (ABCB1, P-glycoprotein) (Homo sapiens, UniProt P08183). The experiment in a line: Substrate activity at human MDR1 expressed in LLC-PK1 cells assessed as efflux ratio of permeability across basolateral to apical over apical to basolateral side at 5 uM. It counts as ADME, cell-based.
Data set [3] is described as follows: Solubility of the compound at pH 7. It is filed as physicochemical. As to conditions: buffer.
Data set [4] in a line: Clearance in Sprague-Dawley rat at 1 mL/kg, iv administered through catheter measured after 24 hrs by LC-MS/MS analysis. As to conditions: in vivo. It counts as ADME, organism-based.

In general, IC50 refers to the point on the concentration scale where inhibition reaches its midpoint. What is called efflux ratio is the permeability from basolateral to apical divided by that in the opposite direction, in the common usage. A word on the solubility: it is how much of the substance goes into solution per volume. A low value points to little dissolved substance. For orientation: clearance means the volume of plasma or blood freed of the substance per unit of time. A high value points to a high capacity for elimination.

≈ marks a conversion by molar mass, not a printed value. A value given as a limit tells only on which side of the number the result lay.

MAP/microtubule affinity-regulating kinase 3, sequence (P27448 whole entry): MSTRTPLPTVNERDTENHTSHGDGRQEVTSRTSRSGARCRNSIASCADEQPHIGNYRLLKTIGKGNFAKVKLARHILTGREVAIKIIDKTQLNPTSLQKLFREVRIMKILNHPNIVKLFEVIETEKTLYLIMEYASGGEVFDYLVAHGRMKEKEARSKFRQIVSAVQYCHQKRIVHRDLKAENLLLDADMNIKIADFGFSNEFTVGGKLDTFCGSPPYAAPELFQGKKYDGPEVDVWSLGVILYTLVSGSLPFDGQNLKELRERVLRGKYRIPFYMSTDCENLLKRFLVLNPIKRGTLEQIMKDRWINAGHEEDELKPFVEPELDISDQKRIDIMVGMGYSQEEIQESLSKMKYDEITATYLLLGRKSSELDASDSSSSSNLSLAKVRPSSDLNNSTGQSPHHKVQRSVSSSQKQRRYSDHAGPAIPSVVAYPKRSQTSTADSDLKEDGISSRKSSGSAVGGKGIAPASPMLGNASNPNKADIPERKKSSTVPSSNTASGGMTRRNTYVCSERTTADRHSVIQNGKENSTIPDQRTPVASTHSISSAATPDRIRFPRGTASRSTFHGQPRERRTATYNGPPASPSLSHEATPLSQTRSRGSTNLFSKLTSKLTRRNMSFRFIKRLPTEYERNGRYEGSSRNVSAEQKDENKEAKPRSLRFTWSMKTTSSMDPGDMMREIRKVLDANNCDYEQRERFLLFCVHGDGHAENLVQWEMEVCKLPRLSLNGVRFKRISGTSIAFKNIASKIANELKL
MDR1 (ABCB1, P-glycoprotein), sequence (P08183 whole entry): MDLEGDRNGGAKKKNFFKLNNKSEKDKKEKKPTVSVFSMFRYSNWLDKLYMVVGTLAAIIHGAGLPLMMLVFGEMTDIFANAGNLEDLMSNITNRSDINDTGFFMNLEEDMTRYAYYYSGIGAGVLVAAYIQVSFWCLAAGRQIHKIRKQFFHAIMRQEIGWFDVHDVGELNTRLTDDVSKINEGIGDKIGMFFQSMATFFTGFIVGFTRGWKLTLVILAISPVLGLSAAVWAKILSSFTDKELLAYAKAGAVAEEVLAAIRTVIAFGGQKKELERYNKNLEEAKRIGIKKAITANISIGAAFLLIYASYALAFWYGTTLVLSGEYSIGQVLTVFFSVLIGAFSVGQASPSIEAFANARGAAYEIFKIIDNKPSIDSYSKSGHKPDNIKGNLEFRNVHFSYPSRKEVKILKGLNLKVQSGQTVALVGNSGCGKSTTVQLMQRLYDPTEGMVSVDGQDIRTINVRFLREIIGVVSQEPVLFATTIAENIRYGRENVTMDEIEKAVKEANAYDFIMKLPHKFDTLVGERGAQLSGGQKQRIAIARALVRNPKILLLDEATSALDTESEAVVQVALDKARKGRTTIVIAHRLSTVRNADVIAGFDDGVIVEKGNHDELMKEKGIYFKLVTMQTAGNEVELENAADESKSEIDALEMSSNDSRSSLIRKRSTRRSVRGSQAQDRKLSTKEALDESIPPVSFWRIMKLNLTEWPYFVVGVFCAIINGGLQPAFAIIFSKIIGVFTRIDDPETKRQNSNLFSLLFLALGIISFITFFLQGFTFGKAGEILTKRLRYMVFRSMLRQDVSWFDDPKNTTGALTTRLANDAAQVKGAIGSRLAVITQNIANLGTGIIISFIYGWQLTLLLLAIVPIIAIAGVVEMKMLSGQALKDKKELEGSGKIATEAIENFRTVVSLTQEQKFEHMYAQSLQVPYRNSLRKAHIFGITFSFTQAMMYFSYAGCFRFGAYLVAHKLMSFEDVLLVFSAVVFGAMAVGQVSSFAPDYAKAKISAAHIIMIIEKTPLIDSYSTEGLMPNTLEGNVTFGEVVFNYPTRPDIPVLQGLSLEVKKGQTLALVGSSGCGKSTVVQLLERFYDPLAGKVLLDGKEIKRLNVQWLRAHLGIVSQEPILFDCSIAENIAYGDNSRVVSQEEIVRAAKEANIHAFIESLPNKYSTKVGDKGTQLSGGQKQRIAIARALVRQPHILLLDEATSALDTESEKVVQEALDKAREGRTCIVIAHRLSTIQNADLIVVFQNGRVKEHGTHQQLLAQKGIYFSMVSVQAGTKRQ

As to `O=C(NCC(F)(F)F)c1cc(-c2cnn3cc(-c4cn[nH]c4)cnc23)cs1`, the IC50 in data set [1] amounted to 99 nM.

For the compound `Cn1cnc(-c2cnc3c(-c4csc(C(=O)NCC(F)(F)F)c4)cnn3c2)c1`, the concentration for half-maximal inhibition (IC50) in data set [1] came to 13 nM.

As for `O=C(NCC(F)(F)F)c1cc(-c2cnn3cc(-c4cccnc4)cnc23)cs1`, the IC50 in data set [1] was 70 nM.

For the compound `Cc1sc(C(=O)N[C@@H]2[C@H](N)CCCC2(F)F)cc1-c1cnn2cccnc12`, in data set [1], the IC50 is 2.4 nM. Also, the efflux ratio at 5 µM in data set [2] was 10. In data set [3], the concentration in solution (solubility) was 200 µM (≈ 78.3 µg/mL).

Consider `CCNC(=O)c1cc(-c2cnn3cc(-c4cnn(C)c4)cnc23)cs1`, for which the IC50 in data set [1] turned out to be 129 nM.

For the compound `Cc1sc(C(=O)N[C@H]2CCCC(F)(F)[C@H]2N)cc1-c1cnn2cc(-c3cnn(C)c3)cnc12`, the IC50 in data set [1] came to 130 nM.

In the case of `Cc1sc(C(=O)N[C@@H]2[C@H](N)CCCC2(F)F)cc1-c1cnn2cc(-c3cnn(C)c3)cnc12`, in data set [1], the IC50 was < 0.25 nM. This compound also registered a solubility in data set [3] of 31 µM (≈ 14.6 µg/mL).

Regarding `Cn1cc(-c2cnc3c(-c4csc(C(=O)NCCC(N)C(F)(F)F)c4)cnn3c2)cn1` (stereo not drawn), in data set [4], the clearance came out at 14 mL/min/kg. In addition, the IC50 in data set [1] stood at 10 nM. Also, the efflux ratio at 5 µM in data set [2] amounted to 4.8.

For the compound `Cn1cc(-c2cnc3c(-c4csc(C(=O)NC(CO)C5CC5)c4)cnn3c2)cn1` (stereo not drawn), the half-inhibitory concentration (IC50) in data set [1] is 9 nM.

For the compound `Cn1cc(-c2cnc3c(-c4csc(C(=O)NCCC(N)C(F)F)c4)cnn3c2)cn1` (stereo not drawn), the clearance in data set [4] was found to be 16.7 mL/min/kg. For the same compound, the IC50 in data set [1] was 15 nM. Moreover, the efflux ratio at 5 µM in data set [2] came out at 11.5.

With `Cn1cc(-c2cnc3c(-c4csc(C(=O)NCCC(N)CF)c4)cnn3c2)cn1` (stereo not drawn), the IC50 in data set [1] was 22 nM. In addition, the efflux ratio at 5 µM in data set [2] amounted to 16.7.

In the case of `COCCOc1ccc(-c2cnc3c(-c4csc(C(=O)NCC(F)(F)F)c4)cnn3c2)cc1`, the concentration for half-maximal inhibition (IC50) in data set [1] was determined as 5 nM.

As for `Cn1cc(-c2cnc3c(-c4csc(C(=O)N[C@@H]5CCCC[C@H]5O)c4)cnn3c2)cn1` (mixture of isomers), the IC50 in data set [1] was 24 nM. Besides, the solubility in data set [3] came out at 6 µM.

On to `Cn1cc(-c2cnc3c(-c4csc(C(=O)N[C@@H]5CCC[C@@H]5N)c4)cnn3c2)cn1` (racemic), for which the IC50 in data set [1] is 2 nM. This compound came in with a solubility in data set [3] of 69 µM (≈ 28.1 µg/mL).

In the case of `Cn1cc(-c2cnc3c(-c4csc(C(=O)N[C@@H]5CCCC[C@H]5N)c4)cnn3c2)cn1` (racemic), the IC50 in data set [1] worked out at 1 nM. For the same compound, in data set [3], the concentration in solution (solubility) was 193 µM (≈ 81.4 µg/mL).

Turning to `Cn1cc(-c2cnc3c(-c4csc(C(=O)N[C@@H]5CCC[C@H]5O)c4)cnn3c2)cn1` (racemic), the IC50 in data set [1] came out at 10 nM.

`Cc1sc(C(=O)N[C@@H]2CCCC[C@@H]2N)cc1-c1cnn2cc(-c3cnn(C)c3)cnc12` (racemic): the IC50 in data set [1] stood at 1.3 nM. In data set [3], this compound registered a solubility of 192 µM (≈ 83.6 µg/mL).

In the case of `Cn1cc(-c2cnc3c(-c4csc(C(=O)N[C@@H]5CCC[C@H]5N)c4)cnn3c2)cn1` (racemic), the IC50 in data set [1] turned out to be 3 nM. For the same compound, in data set [3], the concentration in solution (solubility) came to 203 µM (≈ 82.7 µg/mL).

Regarding `Cn1cc(-c2cnc3c(-c4csc(C(=O)N[C@@H]5CCCC[C@@H]5O)c4)cnn3c2)cn1` (racemic), in data set [1], the IC50 was 9 nM.

With `Cn1cc(-c2cnc3c(-c4csc(C(=O)N[C@@H]5CCC[C@@H]5O)c4)cnn3c2)cn1` (racemic), the IC50 in data set [1] amounted to 43 nM.
